What was measured:
SD rats [1] = test: Acute administration of A28 at multiple doses, urinary glucose of SD rats; format: in vivo, rat; conditions: within 24 h
Protocol: (1) 72 normal male SD rats were selected and randomly divided into 9 groups according to body weight and blood glucose, 8 in each group. […] After oral gavage, the rats were placed in rats metabolic cages, and urine was collected after 24 h, and the urine volume was recorded, then preserved under −20° C. Rats take food and water freely during the experimental period.
(2) Index Determination: Glucose levels in urine are measured by the glucose assay kit.

SD rats [2] = test: Acute administration of A28 at multiple doses, glucose tolerance of SD rats; format: in vivo, rat; conditions: for AUC0-2 h / Average hypoglycemic rate % (0-2 h) / Blood glucose level 15 min / Blood glucose level 30 min / Blood glucose level 60 min / Blood glucose level 90 min / Blood glucose level 120 min / Blood glucose level 0: SD rats OGTT; for Blood glucose level 0: before sugar
Protocol: (1) 80 SD rats were selected and starved overnight, took water freely, then randomly divided into 10 groups according to body weight and random blood glucose, 8 rats in each group. […] 1 h after oral gavage, 3 g/kg of glucose was orally administered to each group except blank control group, and the blood glucose level was monitored before the sugar administration, and at 15, 30, 60, 90 and 120 minutes after the sugar administration.
Average hypoglycemic rate %=(AUC0-120 min of solvent control group−AUC0-120 min of administration group)/(AUC0-120 min of solvent control group−AUC0-120 min of blank control group)*100%

C57BL/6J mice = test: Acute administration of A28 at multiple doses, oral glucose tolerance of C57BL/6J mice; format: in vivo, mouse; conditions: for AUC0-2 h / Average hypoglycemic rate % (0-2 h) / Blood glucose level 15 min / Blood glucose level 30 min / Blood glucose level 60 min / Blood glucose level 90 min / Blood glucose level 120 min / Blood glucose level 0: C57BL/6J mice OGTT; for Blood glucose level 0: before sugar
Protocol: (1) Experimental Methods: 56 C57BL/6J mice were selected and starved for 6 h, took water freely, then randomly divided into 7 groups according to body weight and random blood glucose, 8 rats in each group. […] Average hypoglycemic rate %=(AUC0-120 min of solvent control group−AUC0-120 min of administration group)/(AUC0-120 min of solvent control group−AUC0-120 min of blank control group)*100%

db/db mice [3] = test: Chronic administration, glycosylated hemoglobin level in db/db mice; format: in vivo, mouse; conditions: for HbA1c Decline rate %: vs vehicle
Protocol: (§1) Oral gavage administrated, daily dose volume was 10 mL/kg, administered once daily. Administration time was 9: 00-10:00 daily, and the administration period was 5 weeks.
In the end of the above experiment, the orbital blood was taken from animals of each group and divided into two tubes, one was centrifuged to take blood cells for the determination of glycated hemoglobin content, the other tube was added with 25 μL EDTA in advance, centrifuged and the supernatant was taken to determine the indexes such as triglyceride (TG), total cholesterol (TC), total protein (TP), albumin, low density lipoprotein (LDL), high density lipoprotein (HDL), non-esterified fatty acid (NEFA) and so on.

db/db mice [4] = test: Chronic administration, glucose-stimulated insulin release in db/db mice; format: in vivo, mouse; conditions: for Insulin AUC / Insulin (ng/ml) 0 min / Insulin (ng/ml) 15 min / Insulin (ng/ml) 30 min / Insulin (ng/ml) 60 min / Insulin (ng/ml) pre: glucose-stimulated insulin release, chronic administration
Protocol: as §1
The fourth week after administration, the mice were starved for 6 hours after morning administration and were orally administrated with glucose (1.5 g/kg), and blood was collected from the tail (10 μL EDTA+20 μL tail blood). Centrifuged and the supernatant was taken, stored at −20° C. for insulin test.

SMILES: CCc1ccc(Cc2cc3c(cc2Cl)CO[C@]32O[C@H](C)[C@@H](O)[C@H](O)[C@H]2O)s1 [Example A28, (1S,3′R,4′S,5′S,6′R)-6′-methyl-6-((5-ethylthienyl)-2-methyl)-5-chloro-3′,4′,5′,6′-tetrahydro-3H-spiro[isobenzofuran-1,2′-pyran]-3′,4′,5′-triol]
- Total sugar excretion (SD rats [1]; oral 0.3 mg/kg): 10.55 ± 10.05 mg/100 g
- Urine concentration (SD rats [1]; oral 0.3 mg/kg): 8.70 ± 1.98 mmol/L
- Urine volume (SD rats [1]; oral 0.3 mg/kg): 16.25 ± 1.50 mL
- Total sugar excretion (SD rats [1]; oral 1 mg/kg): 149.08 ± 0.00 mg/100 g
- Urine concentration (SD rats [1]; oral 1 mg/kg): 105.56 ± 0.00 mmol/L
- Urine volume (SD rats [1]; oral 1 mg/kg): 19.25 ± 0.00 mL
- Total sugar excretion (SD rats [1]; oral 3 mg/kg): 441.27 ± 50.75 mg/100 g
- Urine concentration (SD rats [1]; oral 3 mg/kg): 257.69 ± 32.96 mmol/L
- Urine volume (SD rats [1]; oral 3 mg/kg): 25.00 ± 2.06 mL
- Total sugar excretion (SD rats [1]; oral 10 mg/kg): 1028.20 ± 83.93 mg/100 g
- Urine concentration (SD rats [1]; oral 10 mg/kg): 359.48 ± 29.43 mmol/L
- Urine volume (SD rats [1]; oral 10 mg/kg): 39.75 ± 1.57 mL
- urine glucose excretion (SD rats [1]; single oral 0.3, 1, 3 and 10 mg/kg): significantly promoted in a dose-dependent manner
- AUC0-2 h (SD rats [2]; oral 0.3 mg/kg): 19.1 ± 1.77 mmol·h/L
- Average hypoglycemic rate % (0-2 h) (SD rats [2]; oral 0.3 mg/kg): 10.3%
- Blood glucose level 15 min (SD rats [2]; oral 0.3 mg/kg): 7.6 ± 0.8 mmol/L
- Blood glucose level 30 min (SD rats [2]; oral 0.3 mg/kg): 10.1 ± 1.6 mmol/L
- Blood glucose level 60 min (SD rats [2]; oral 0.3 mg/kg): 11.1 ± 1.3 mmol/L
- Blood glucose level 90 min (SD rats [2]; oral 0.3 mg/kg): 10.5 ± 0.8 mmol/L
- Blood glucose level 120 min (SD rats [2]; oral 0.3 mg/kg): 8.1 ± 1.3 mmol/L
- Blood glucose level 0 (SD rats [2]; oral 0.3 mg/kg): 5.0 ± 0.7 mmol/L
- AUC0-2 h (SD rats [2]; oral 1 mg/kg): 15.6 ± 0.9 mmol·h/L
- Average hypoglycemic rate % (0-2 h) (SD rats [2]; oral 1 mg/kg): 45.0%
- Blood glucose level 15 min (SD rats [2]; oral 1 mg/kg): 5.4 ± 0.9 mmol/L
- Blood glucose level 30 min (SD rats [2]; oral 1 mg/kg): 6.5 ± 1.1 mmol/L
- Blood glucose level 60 min (SD rats [2]; oral 1 mg/kg): 8.4 ± 0.6 mmol/L
- Blood glucose level 90 min (SD rats [2]; oral 1 mg/kg): 9.6 ± 1.2 mmol/L
- Blood glucose level 120 min (SD rats [2]; oral 1 mg/kg): 9.0 ± 1.3 mmol/L
- Blood glucose level 0 (SD rats [2]; oral 1 mg/kg): 4.4 ± 0.3 mmol/L
- AUC0-2 h (SD rats [2]; oral 3 mg/kg): 11.6 ± 0.9 mmol·h/L
- Average hypoglycemic rate % (0-2 h) (SD rats [2]; oral 3 mg/kg): 83.7%
- Blood glucose level 15 min (SD rats [2]; oral 3 mg/kg): 3.6 ± 0.5 mmol/L
- Blood glucose level 30 min (SD rats [2]; oral 3 mg/kg): 4.3 ± 0.3 mmol/L
- Blood glucose level 60 min (SD rats [2]; oral 3 mg/kg): 5.6 ± 0.7 mmol/L
- Blood glucose level 90 min (SD rats [2]; oral 3 mg/kg): 7.4 ± 0.6 mmol/L
- Blood glucose level 120 min (SD rats [2]; oral 3 mg/kg): 8.4 ± 1.6 mmol/L
- Blood glucose level 0 (SD rats [2]; oral 3 mg/kg): 3.7 ± 0.4 mmol/L
- AUC0-2 h (SD rats [2]; oral 10 mg/kg): 7.6 ± 0.9 mmol·h/L
- Average hypoglycemic rate % (0-2 h) (SD rats [2]; oral 10 mg/kg): 122.4%
- Blood glucose level 15 min (SD rats [2]; oral 10 mg/kg): 3.0 ± 0.4 mmol/L
- Blood glucose level 30 min (SD rats [2]; oral 10 mg/kg): 3.4 ± 0.4 mmol/L
- Blood glucose level 60 min (SD rats [2]; oral 10 mg/kg): 4.3 ± 1.8 mmol/L
- Blood glucose level 90 min (SD rats [2]; oral 10 mg/kg): 4.2 ± 0.4 mmol/L
- Blood glucose level 120 min (SD rats [2]; oral 10 mg/kg): 3.7 ± 0.9 mmol/L
- Blood glucose level 0 (SD rats [2]; oral 10 mg/kg): 3.1 ± 0.4 mmol/L
- 2 h hypoglycemic effect compared with Dapagliflozin (SD rats [2]; SD rats, single oral dose): equivalent 2 h hypoglycemic effect to positive Dapagliflozin
- AUC0-2 h (C57BL/6J mice; oral 0.3 mg/kg): 21.6 ± 1.5 mmol·h/L
- Average hypoglycemic rate % (0-2 h) (C57BL/6J mice; oral 0.3 mg/kg): 2.0%
- Blood glucose level 15 min (C57BL/6J mice; oral 0.3 mg/kg): 14.2 ± 2.1 mmol/L
- Blood glucose level 30 min (C57BL/6J mice; oral 0.3 mg/kg): 13.0 ± 1.7 mmol/L
- Blood glucose level 60 min (C57BL/6J mice; oral 0.3 mg/kg): 11.2 ± 0.8 mmol/L
- Blood glucose level 90 min (C57BL/6J mice; oral 0.3 mg/kg): 9.1 ± 1.0 mmol/L
- Blood glucose level 120 min (C57BL/6J mice; oral 0.3 mg/kg): 8.3 ± 1.0 mmol/L
- Blood glucose level 0 (C57BL/6J mice; oral 0.3 mg/kg): 7.5 ± 0.4 mmol/L
- AUC0-2 h (C57BL/6J mice; oral 1 mg/kg): 19.8 ± 1.0 mmol·h/L
- Average hypoglycemic rate % (0-2 h) (C57BL/6J mice; oral 1 mg/kg): 10.0%
- Blood glucose level 15 min (C57BL/6J mice; oral 1 mg/kg): 12.5 ± 1.6 mmol/L
- Blood glucose level 30 min (C57BL/6J mice; oral 1 mg/kg): 12.0 ± 0.8 mmol/L
- Blood glucose level 60 min (C57BL/6J mice; oral 1 mg/kg): 9.9 ± 0.9 mmol/L
- Blood glucose level 90 min (C57BL/6J mice; oral 1 mg/kg): 8.7 ± 0.7 mmol/L
- Blood glucose level 120 min (C57BL/6J mice; oral 1 mg/kg): 7.9 ± 0.7 mmol/L
- Blood glucose level 0 (C57BL/6J mice; oral 1 mg/kg): 7.1 ± 0.6 mmol/L
- AUC0-2 h (C57BL/6J mice; oral 3 mg/kg): 18.5 ± 0.6 mmol·h/L
- Average hypoglycemic rate % (0-2 h) (C57BL/6J mice; oral 3 mg/kg): 16.2%
- Blood glucose level 15 min (C57BL/6J mice; oral 3 mg/kg): 10.4 ± 1.0 mmol/L
- Blood glucose level 30 min (C57BL/6J mice; oral 3 mg/kg): 11.3 ± 1.1 mmol/L
- Blood glucose level 60 min (C57BL/6J mice; oral 3 mg/kg): 9.5 ± 0.7 mmol/L
- Blood glucose level 90 min (C57BL/6J mice; oral 3 mg/kg): 8.4 ± 0.7 mmol/L
- Blood glucose level 120 min (C57BL/6J mice; oral 3 mg/kg): 7.4 ± 0.6 mmol/L
- Blood glucose level 0 (C57BL/6J mice; oral 3 mg/kg): 6.4 ± 0.7 mmol/L
- effective dose, reduction of blood glucose AUC within 2 h after sugar (C57BL/6J mice; C57BL/6J mice, once administrated): 1 mg/kg
- HbA1c (%) (db/db mice [3]; dose 0.3 mg/kg): 5.83 ± 0.36 %
- HbA1c Decline rate % (db/db mice [3]; dose 0.3 mg/kg): 23.2%
- HbA1c (%) (db/db mice [3]; dose 1 mg/kg): 6.02 ± 0.30 %
- HbA1c Decline rate % (db/db mice [3]; dose 1 mg/kg): 20.7%
- HbA1c (%) (db/db mice [3]; dose 3 mg/kg): 4.95 ± 0.37 %
- HbA1c Decline rate % (db/db mice [3]; dose 3 mg/kg): 34.8%
- HbA1c (%) (db/db mice [3]; dose 10 mg/kg): 4.50 ± 0.27 %
- HbA1c Decline rate % (db/db mice [3]; dose 10 mg/kg): 40.7%
- glucose-stimulated insulin release (db/db mice [4]; four weeks chronic administration, 0.3 mg/kg and 1 mg/kg): significantly improved glucose-stimulated insulin release in db/db mice in a dose-dependent manner
- Insulin AUC (db/db mice [4]; dose 0.3 mg/kg): 43.85 ± 5.69
- Insulin (ng/ml) 0 min (db/db mice [4]; dose 0.3 mg/kg): 21.58 ± 2.48 ng/mL
- Insulin (ng/ml) 15 min (db/db mice [4]; dose 0.3 mg/kg): 51.67 ± 7.86 ng/mL
- Insulin (ng/ml) 30 min (db/db mice [4]; dose 0.3 mg/kg): 46.22 ± 8.10 ng/mL
- Insulin (ng/ml) 60 min (db/db mice [4]; dose 0.3 mg/kg): 43.61 ± 4.85 ng/mL
- Insulin (ng/ml) pre (db/db mice [4]; dose 0.3 mg/kg): 7.68 ± 0.79 ng/mL
- Insulin AUC (db/db mice [4]; dose 1 mg/kg): 35.92 ± 5.00
- Insulin (ng/ml) 0 min (db/db mice [4]; dose 1 mg/kg): 17.47 ± 2.20 ng/mL
- Insulin (ng/ml) 15 min (db/db mice [4]; dose 1 mg/kg): 41.94 ± 8.42 ng/mL
- Insulin (ng/ml) 30 min (db/db mice [4]; dose 1 mg/kg): 40.07 ± 7.01 ng/mL
- Insulin (ng/ml) 60 min (db/db mice [4]; dose 1 mg/kg): 32.89 ± 3.69 ng/mL
- Insulin (ng/ml) pre (db/db mice [4]; dose 1 mg/kg): 7.86 ± 0.94 ng/mL
- Insulin AUC (db/db mice [4]; dose 3 mg/kg): 32.49 ± 5.92
- Insulin (ng/ml) 0 min (db/db mice [4]; dose 3 mg/kg): 17.57 ± 4.54 ng/mL
- Insulin (ng/ml) 15 min (db/db mice [4]; dose 3 mg/kg): 38.42 ± 8.58 ng/mL
- Insulin (ng/ml) 30 min (db/db mice [4]; dose 3 mg/kg): 36.06 ± 8.77 ng/mL
- Insulin (ng/ml) 60 min (db/db mice [4]; dose 3 mg/kg): 28.68 ± 8.81 ng/mL
- Insulin (ng/ml) pre (db/db mice [4]; dose 3 mg/kg): 7.92 ± 1.60 ng/mL
- Insulin AUC (db/db mice [4]; dose 10 mg/kg): 17.20 ± 1.59
- Insulin (ng/ml) 0 min (db/db mice [4]; dose 10 mg/kg): 9.02 ± 0.59 ng/mL
- Insulin (ng/ml) 15 min (db/db mice [4]; dose 10 mg/kg): 16.70 ± 2.42 ng/mL
- Insulin (ng/ml) 30 min (db/db mice [4]; dose 10 mg/kg): 13.42 ± 1.94 ng/mL
- Insulin (ng/ml) 60 min (db/db mice [4]; dose 10 mg/kg): 27.45 ± 4.43 ng/mL
- Insulin (ng/ml) pre (db/db mice [4]; dose 10 mg/kg): 7.45 ± 1.00 ng/mL
